Reference: US6380277B1, “Iodonium salt photoinitiators containing urethane groups for cationic curing” (Goldschmidt AG, priority 1999, dated 2002)

Key:
Solubility in toluene = format: physicochemical
Source text: The solubility of the iodonium salts of the invention was compared with the solubility of the hydroxyl-bearing iodonium salts.

[1] = Tests relating to cationic photopolymerization (UV curing of coating)
Source text: In order to examine the activity of the compounds shown in Examples 1-4 in cationic photopolymerization, 98 parts of a cycloaliphatic epoxysilane having an epoxy value of 3.5% and a viscosity of 125 mPas were mixed with 2 parts of each photoinitiator.
The mixtures were then applied to a standard OPP film (30 μm) using a pilot-scale coating machine equipped with a five-roll applicator unit. The application weight was 0.5-1 g/m^2. The coatings were subsequently cured with a microwave-excited UV lamp (Fusion, 120 W/cm) at a web speed of 20 m/min.
Directly following passage under the UV lamp, it was determined whether the coatings have cured to a film which is no longer tacky.

[2] = Miscibility with organopolysiloxanes containing epoxy groups; format: physicochemical
[3] = Hydrolytic stability: time to formation of visible precipitates or crystals; format: physicochemical; details: time to formation of visible precipitates or crystals of hydrolytic cleavage product formula (XI)
Source text: The improved hydrolytic stability of the iodonium salts of the invention containing urethane groups may best be shown in comparison with the iodonium salt with the formula (XVI), containing Si—O—C bonds (see German Patent Application 19901531.7). [drawing 19]
Indicated is the time to the formation of visible precipitates or crystals of the hydrolytic cleavage product with the formula (XI): […]

In the case of `CCCCCCCCCCCCC(COc1ccc([I+]c2ccccc2)cc1)OC(=O)Nc1cccc(C(F)(F)F)c1` (stereo not drawn) [Formula (VII)], the solubility in toluol (Solubility in toluene) is reported as “unrestricted solubility”.
For `CCCCCCCCCCCCC(O)COc1ccc([I+]c2ccccc2)cc1` (stereo not drawn) [Formula (VIII)], the “Appearance of the mixture” value ([1]; 2 parts photoinitiator in 98 parts cycloaliphatic epoxysilane (epoxy value 3.5%, 125 mPas)) was “cloudy,”, the “Curing after the UV lamp” value ([1]; 2 parts photoinitiator, 0.5-1 g/m^2 on OPP film, UV lamp 120 W/cm, web speed 20 m/min, judged directly after lamp) was “unsatisfactory;” and the solubility in toluol (Solubility in toluene) was “insoluble”. The “miscibility with organopolysiloxanes containing epoxy groups” value [2] was “no miscibility”.
With `CCCCCCCCCCCCC(O)COc1ccc([I+]c2ccccc2)cc1` (stereo not drawn) [Formula (XI)] the Solubility in toluene (Solubility in toluene) was “insoluble” and the melting point was 91 °C.
For `CCCCCCCCCCCCC(COc1ccc([I+]c2ccccc2)cc1)O[Si](C)(C)C` (stereo not drawn) [Formula (XVI)], the “Stability in 1-butanol (50% w/w)” value ([3]; 50% w/w in 1-butanol) was 2 days and the “Stability in toluene (50% w/w)” value ([3]; 50% w/w in toluene) was 21 days.
